Columns and labels:
[1] = tested on: NF-κB transcription factor; assay: NF-κB transcription factor activity, supernatants of R848-stimulated PBMCs on THP1-Dual reporter line; type: cell-based; conditions: human PBMCs, inhibitor 1 h before R848, 24 h, QUANTI-Blue (FIG. 17B)
Method: The monocytes, T lymphocytes and B lymphocytes were cultured at 1·10^6/ml. […] The T lymphocytes were stimulated for 3 days with beads from the “Dynabeads human T activator CD3/CD28” kit from Thermo Fisher Scientific, following their instructions. […] The B lymphocytes were stimulated for 24 h with CpG-A t 1 μg/ml. […] The activity of the NF-κB transcription factor was measured by means of the THP1-Dual reporter cell line from Invivogen. […] The activity of the NF-κB transcription factor was measured with QUANTI-Blue, a detection agent […], following the supplier's recommendations.

[2] = tested on: peripheral blood mononuclear cells (PBMCs); assay: Cell toxicity on PBMCs, ATP quantification with CellTiter Glo; type: cell-based, human; conditions: cGAMP 24 h
[3] = tested on: monocytes of healthy donors; assay: TNFα, IL-1β and IL-6 production and viability of R848-activated purified monocytes, flow cytometry; type: cell-based, human
Method: (§1) The monocytes, T lymphocytes and B lymphocytes were cultured at 1·10^6/ml. […] The T lymphocytes were stimulated for 3 days with beads from the “Dynabeads human T activator CD3/CD28” kit from Thermo Fisher Scientific, following their instructions. […] The B lymphocytes were stimulated for 24 h with CpG-A t 1 μg/ml. […] The cells were rinsed in PBS then incubated with a viability dye (Zombie Aqua, Biolegend) for 30 min at ambient temperature. After washing, the cells were resuspended in PBS containing 2% SVF and 2 mM EDTA. For the monocytes, an intracellular labelling of TNFα, IL-6 and IL-1β, with the “Inside Stain” kit (Miltenyi Biotec) was used following the manufacturer's protocol. […] Data acquisition was carried out on the Attune N×T flow cytometer from Thermo Fisher. The FlowJo software was used to analyze the data. For the T lymphocytes, the cells were suspended in PBS containing 2% SVF and 2 mM EDTA then labelled with the PE anti-CD69 and APC anti-CD3 antibody from Miltenyi Biotec, used at 1/100°. After incubation for 30 min, the cells were rinsed in PBS containing 2% SVF and 2 mM EDTA. Data acquisition was carried out on the Attune N×T flow cytometer from Thermo Fisher. The FlowJo software was used to analyze the data. […]

[4] = tested on: peripheral blood mononuclear cells (PBMCs); assay: Interferon production by cGAMP-activated PBMCs, STING-37 reporter cell line; conditions: inhibitor 1 h before cGAMP 3 μg/ml, 24 h, STING-37 reporter (FIG. 22A, 23A)
T lymphocytes = assay: CD69 expression and viability of T lymphocytes activated with CD3/CD28 beads, flow cytometry; type: cell-based, human; conditions: purified T lymphocytes, 3 days (FIG. 19)
Method: as §1

[5] = tested on: monocytes of healthy donors; assay: Intracellular TNFα production in monocytes after TLR7/8 (Resiquimod-R848) stimulation, flow cytometry; type: cell-based, human; conditions: inhibitor 1 h before R848 (TLR7/8), 16 h, flow cytometry (FIG. 1, 2)
Method: The cells were rinsed in PBS then incubated with a viability dye (Zombie Aqua, Biolegend) for 30 min at ambient temperature. After washing, the cells were resuspended in PBS containing 2% SVF and 2 mM EDTA then labelled with the APC Vio770 anti-CD14 (clone REA599) antibody from Miltenyi Biotec, used at 1/100°. […] Data acquisition was carried out on the […] flow cytometer using the Diva software (BD Biosciences, San Jose, Calif.). The Kaluza software was used to analyze the data.

[6] = tested on: immune cells (PBMCs and purified monocytes) of healthy donors; assay: Production of inflammatory cytokines by PBMCs and purified monocytes after TLR2/4 stimulation by bacterial agents; type: cell-based, human; conditions: TLR 2/4 stimulation by lipoteichoic acid/LPS
activated immune cells = assay: Secretion of inflammatory cytokines and interferons by activated immune cells placed in contact with ROCK inhibitor; type: cell-based; conditions: compared with activated immune cells not placed in contact with the inhibitor
[7] = tested on: THP1-Dual human monocyte cell line; assay: Interferon response of cGAMP-activated THP1-Dual cells, luciferase; conditions: inhibitor 1 h before cGAMP 3 μg/ml, 24 h, luciferase (FIG. 22B, 23B)
[8] = tested on: HEK293 non-immune cell line; assay: Interferon production by cGAMP-activated HEK293 non-immune cells (STING-37), luciferase; conditions: inhibitor at 1 and 5 μM (FIG. 22C)
human PBMCs = assay: Interferons in supernatants of R848-stimulated PBMCs, STING-37 reporter cell line; type: cell-based; set-up: dose or concentration left out as unconfirmed; conditions: inhibitor 1 h before R848, 24 h, STING-37 reporter (FIG. 17A)
[9] = tested on: neurones infected by the prions; type: cell-based
[10] = tested on: THP1-Dual human monocyte cell line; assay: Cell toxicity on THP1-Dual, ATP quantification with CellTiter Glo; type: cell-based; conditions: cGAMP 24 h
[11] = tested on: PBMCs of patients suffering from juvenile idiopathic arthritis; assay: Transcription of TNFα and IL-6 genes in PBMCs of juvenile idiopathic arthritis patients, RT-qPCR; type: cell-based, human; conditions: inhibitor at 1 μM for 16 h, RT-qPCR (FIG. 21)
[12] = tested on: monocytes of healthy donors; assay: Intracellular IL1β and TNFα in monocytes after inflammasome activation by uric acid crystals (MSU, gout model), flow cytometry; type: cell-based, human; conditions: activation of the inflammasome by uric acid crystals (mimicking gout)
Method: The cells were rinsed in PBS then incubated with a viability dye (Zombie Aqua, Biolegend) for 30 min at ambient temperature. After washing, the cells were resuspended in PBS containing 2% SVF and 2 mM EDTA then labelled with the APC Vio770 anti-CD14 (clone REA599) antibody from Miltenyi Biotec, used at 1/100°. […] Data acquisition was carried out on the Canto II flow cytometer using the Diva software (BD Biosciences, San Jose, Calif.). The Kaluza software was used to analyze the data.

B lymphocytes = assay: CD69 expression and viability of B lymphocytes activated with CpG-A (TLR9 ligand), flow cytometry; type: cell-based, human; conditions: purified B lymphocytes, 24 h (FIG. 20)
Method: as §1

[13] = tested on: peripheral blood mononuclear cells (PBMCs) of healthy donors; assay: Secretion of inflammatory cytokines and interferons by PBMCs after TLR7/8 (R848) stimulation, LegendPlex; conditions: human PBMCs incubated with inhibitor before R848 stimulation

With `C[C@@H](N)[C@H]1CC[C@H](C(=O)Nc2ccncc2)CC1` [Y27632] the “activation of the transcription factor of the NF-κB pathway induced by the stimulation of TLR7/8” value [1] was “inhibits”, the “viability of the PBMCs” value [2] was “without affecting the viability” and the “production of TNFα, IL-1β and IL-6 induced by R848” value ([3]; inhibitor 1 h before R848 1 μg/ml, 6 h, flow cytometry (FIG. 18)) was “inhibits, according to a dosage effect”. For the same compound, the “viability of the monocytes” value ([3]; inhibitor 1 h before R848, 6 h (FIG. 18)) was “without affecting the viability”, the “production of interferons (IFN) induced by the cGAMP” value [4] was “blocks the production of interferons (IFN) induced by the cGAMP according to a dosage effect starting from 1 μM” and the “viability of the T lymphocytes” value (T lymphocytes; CD3/CD28 beads) was “without affecting the viability”. For the same compound, the “expression of the CD69 marker at the surface of the T lymphocytes” value (T lymphocytes; inhibitor at 1 and 5 μM, 1 h before CD3/CD28 beads) was “inhibits, according to a dosage effect”, the “intracellular production of inflammatory cytokines (TNFα)” value [5] was “inhibits, according to a dosage effect” and the “production of inflammatory cytokines” value [6] was “capable of inhibiting the production of inflammatory cytokines”. The “secretion of the inflammatory cytokines (TNFα, IL-1β, IL6, MCP1 (CCL2)) and of the interferons (IFN)” value (activated immune cells) was “inhibits the secretion”, the “production of interferons (IFN) induced by the cGAMP” value [7] was “blocks the production of interferons (IFN) induced by the cGAMP according to a dosage effect starting from 1 μM” and the “production of interferon induced by the STING ligand” value [8] was “blocks in a limited manner”. For the same compound, the “production of IFN induced by the stimulation of TLR7/8” value (human PBMCs) was “inhibits”, the “level of TNFα in the culture medium” value [9] was “re-establishes a “normal” level” and the “viability of the THP1-Dual” value [10] was “without affecting the viability”. The “transcription of the genes encoding TNFα and IL-6” value [11] was “inhibits the transcription”, the “production of inflammatory cytokines” value [12] was “capable of inhibiting the production of inflammatory cytokines” and the “viability of the B lymphocytes” value (B lymphocytes; CpG-A) was “without affecting the viability”. For the same compound, the “expression of the CD69 marker at the surface of the B lymphocytes” value (B lymphocytes; inhibitor at 1 μM, 1 h before CpG-A 1 μg/ml) was “inhibits, according to a dosage effect” and the “production of TNFα and of pro-inflammatory cytokines such as IL-6, IL-1β and the interferons induced by the TLR7/8 stimulation” value [13] was “inhibits the production”.

— patent US20230124142A1, “NEW THERAPEUTIC TARGETS WITH AN ANTI-INFLAMMATORY AND ANTI-INTERFERON EFFECT” (UNIVERSITÉ PARIS CITÉ, priority 2020, published 2023)
